Assay results published in PMC3724985, “Isolation, biochemical characterization, and cloning of a bacteriocin from the poultry-associated Staphylococcus aureus strain CH-91” (Applied Microbiology and Biotechnology, 2012).
In brackets after ≈: the same amount, converted by molar mass. Entries after “also recorded” stand apart in the source; their conditions may differ.

Columns and labels:
staphylococcal strains = format: cell-based, Staphylococcus spp.
Source text: (§1) S. aureus CH-91 was kindly provided by S. Takeuchi from Fukui Prefectural University, Japan (Takeuchi et al. [1999]). The strain has been deposited in the DSMZ collection under the number DSM 26258. Bacillus licheniformis NCTC 7224, Bacillus subtilis ATCC 6633, Lactococcus lactis subsp. lactis LOCK 0869, Micrococcus luteus strains DSMZ 20030 and CBM (clinical isolate), Sarcina lutea ATCC 9341, S. aureus strains ATCC 25923, M-122 (Polakowska et al. [2012]), Newman and RN4220, S. epidermidis ATCC 35347, Staphylococcus intermedius ATCC 29666, Staphylococcus pseudintermedius LMG 22219 (Devriese et al. [2005]), Staphylococcus saprophyticus ATCC 49453, Staphylococcus xylosus strains isolated from the skin of healthy chickens, Streptococcus mutans ATCC 25175, Streptococcus pneumoniae ATCC 49619, Escherichia coli K12 ATCC 10798, Klebsiella pneumoniae, Serratia marcescens, and Sphingomonas sp. AMC 3962 (Dziga et al. [2012]) were obtained from the collections of The Faculty of Biochemistry, Biophysics and Biotechnology, Jagiellonian University, Krakow, Poland. […]
(§2) The bactericidal activity of BacCH91 was determined using the micro-dilution method in compliance with Clinical and Laboratory Standards Institute guidelines M7-A7 (CLSI [2006]). […] After overnight incubation at 37 °C, the optical density (OD) at 600 nm was measured. […]

[1] = test system: Staphylococcus intermedius ATCC 29663; format: cell-based
Serratia marcescens = format: cell-based
Source text: (§3) S. aureus CH-91 was kindly provided by S. Takeuchi from Fukui Prefectural University, Japan (Takeuchi et al. [1999]). The strain has been deposited in the DSMZ collection under the number DSM 26258. Bacillus licheniformis NCTC 7224, Bacillus subtilis ATCC 6633, Lactococcus lactis subsp. lactis LOCK 0869, Micrococcus luteus strains DSMZ 20030 and CBM (clinical isolate), Sarcina lutea ATCC 9341, S. aureus strains ATCC 25923, M-122 (Polakowska et al. [2012]), Newman and RN4220, S. epidermidis ATCC 35347, Staphylococcus intermedius ATCC 29666, Staphylococcus pseudintermedius LMG 22219 (Devriese et al. [2005]), Staphylococcus saprophyticus ATCC 49453, Staphylococcus xylosus strains isolated from the skin of healthy chickens, Streptococcus mutans ATCC 25175, Streptococcus pneumoniae ATCC 49619, Escherichia coli K12 ATCC 10798, Klebsiella pneumoniae, Serratia marcescens, and Sphingomonas sp. AMC 3962 (Dziga et al. [2012]) were obtained from the collections of The Faculty of Biochemistry, Biophysics and Biotechnology, Jagiellonian University, Krakow, Poland. A list of strains used for assessment of the general occurrence of the bacteriocin gene is provided in the Electronic supplementary materials (ESM; Table S1). Gram-positive and Gram-negative bacteria were maintained at 37 °C in tryptic soy broth (TSB) and Luria-Bertani broth (both obtained from Sigma), respectively.
(§4) The bactericidal activity of BacCH91 was determined using the micro-dilution method in compliance with Clinical and Laboratory Standards Institute guidelines M7-A7 (CLSI [2006]). Briefly, the bacteria were either cultivated in cation-adjusted MHB to the early exponential phase or grown overnight on agar-solidified MHB supplemented with 2.5 % LHB in the case of Streptococcus spp. and L. lactis. Subsequently, the bacteria were diluted to 1 × 10^6 CFU/ml either in MHB or in MHB supplemented with 5 % LHB, in the case of the latter bacteria. Fifty-microliter portions of bacterial suspension were mixed with an equal volume of MHB containing serial twofold dilutions of bacteriocin. After overnight incubation at 37 °C, the optical density (OD) at 600 nm was measured. The MIC was defined as the minimum bacteriocin concentration for which the increase in OD was not observed compared to uninoculated broth.

[2] = test system: Streptococcus pneumoniae ATCC 49619; format: cell-based
Source text: as §3, §4

[3] = test system: Staphylococcus xylosus kw 2,5; format: cell-based
Source text: as §3, §4

Gram-negative strains = test: MIC, micro-dilution method, Gram-negative strains as a group; format: cell-based; conditions: highest (maximal) concentration tested 100 μM, CLSI M7-A7, cation-adjusted MHB
Source text: as §1, §2

proteinase K = target: T1, proteinase K (Parengyodontium album, UniProt P06873); test: Susceptibility to proteolysis, proteinase K; format: in vitro ADME; conditions: 30 μM, enzyme/bacteriocin 1:20 by weight, 1 h at 37 °C; radial diffusion assay and HPLC
T1 construct: purchased A&A Biotechnology
T1 sequence (P06873 106-384): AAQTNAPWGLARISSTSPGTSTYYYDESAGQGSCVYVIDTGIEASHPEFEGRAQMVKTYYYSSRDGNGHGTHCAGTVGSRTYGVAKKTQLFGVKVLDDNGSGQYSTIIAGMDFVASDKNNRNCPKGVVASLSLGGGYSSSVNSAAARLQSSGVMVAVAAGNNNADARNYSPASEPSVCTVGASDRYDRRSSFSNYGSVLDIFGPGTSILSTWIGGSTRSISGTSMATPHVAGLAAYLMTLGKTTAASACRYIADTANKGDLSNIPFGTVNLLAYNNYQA
Description: All of the above experiments were performed in triplicate. The final results are presented as means ± SD.

`C/C=C(\NC(=O)[C@H](CCCCN)NC(=O)CNC(=O)[C@@H]1CS[C@@H](C)[C@@H](NC(=O)[C@@H]2CSC[C@@H](NC(=O)/C(=C/C)NC(=O)[C@@H](N)[C@@H](C)CC)C(=O)N[C@@H](Cc3ccccc3)C(=O)N[C@@H]([C@@H](C)CC)C(=O)NCC(=O)N2)C(=O)N2CCC[C@H]2C(=O)NCC(=O)N1)C(=O)NCC(=O)N[C@@H]1CSC[C@@H]2NC(=O)[C@H](Cc3ccccc3)NC(=O)[C@@H](CS/C=C\NC2=O)NC(=O)[C@H](CC(N)=O)NC(=O)[C@H](Cc2ccccc2)NC1=O` [BacCH91] was tested, and the MIC (staphylococcal strains) was 1.3 to 6.0 µM, the MIC [1] was 1.6 µM (≈ 3.32 µg/mL) and the MIC (Serratia marcescens) was >100 µM. For the same molecule, the MIC [2] was 1.6 µM (≈ 3.32 µg/mL), the MIC [3] was 1.5 to 2.0 µM and the “susceptibility of Gram-negative strains to BacCH91” value (Gram-negative strains) was “ineffective; also recorded: None of the Gram-negative species assayed were susceptible”. For the same molecule, the “effect of proteinase K on BacCH91” value (proteinase K) was “unaffected”.
